Data taken from US6762052B1, “DNA sequence encoding flavin-containing monooxygenase” (priority 1993, dated 2004).
Converted amounts (≈) assume the structure as drawn. Values belong to the compound of their own block, whether it stands above or below them.

Legend:
[1] = normal humans, dietary sources or otherwise; cited from earlier work
lys158-HFMO3-MBP = biological target: T1, lys158-HFMO3-MBP (Homo sapiens, UniProt P31513, E158K); assay: Substrate oxygenation by lys158-HFMO3-MBP fusion protein, HPLC; conditions: Lys 158 variant
T1 sequence (P31513 2-532 E158K): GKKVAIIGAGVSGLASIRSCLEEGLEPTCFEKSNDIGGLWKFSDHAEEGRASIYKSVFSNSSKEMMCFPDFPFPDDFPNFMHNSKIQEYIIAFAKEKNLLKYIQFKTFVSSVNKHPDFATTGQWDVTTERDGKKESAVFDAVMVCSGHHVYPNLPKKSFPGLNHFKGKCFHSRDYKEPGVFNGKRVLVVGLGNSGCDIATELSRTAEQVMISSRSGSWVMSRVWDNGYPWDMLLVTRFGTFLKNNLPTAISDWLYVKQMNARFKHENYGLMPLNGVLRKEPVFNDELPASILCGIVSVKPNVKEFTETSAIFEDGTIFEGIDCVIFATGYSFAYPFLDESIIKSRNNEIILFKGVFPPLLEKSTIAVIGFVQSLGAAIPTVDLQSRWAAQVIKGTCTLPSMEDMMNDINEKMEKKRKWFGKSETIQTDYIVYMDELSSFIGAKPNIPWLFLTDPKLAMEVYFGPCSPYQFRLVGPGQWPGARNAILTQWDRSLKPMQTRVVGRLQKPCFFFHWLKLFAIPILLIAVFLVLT
Description: For HFMO3-MBP assay, all HFMO3-MBP incubations were done as follows: Into a test tube was added DETAPAC (1.2 mM, final concentration for a 250 μl reaction) followed by the addition of 60 μl NADPH generating system (0.4 mM NADP, 0.4 mM glucose-6-phosphate, and 20 μl of a 50 units mI^−1 glucose-6-phosphate dehydrogenase). The tube was chilled on ice and buffer and enzyme were added as described below for individual experiments to give a volume of 240 μl. The incubation was initiated by the addition of 5-DTP (10 μl of 5 mM) and placed in a shaking water bath at 37° C. for 10 min (unless specified otherwise). The incubation was stopped by the addition of 1.0 ml of ice-cold CH2Cl2. Following the addition of sodium carbonate (approx. 20 mg), the culture tube was vortexed, centrifuged (2000×g, 10 min), and the organic layer was removed and transferred to a 1.5 ml microfuge tube. The organic solvent was evaporated under a stream of Ar(g) to dryness and the residue was taken up in MeOH (300 μl) for determination HPLC analysis.
Data was analyzed with a Hitachi D-2500 integrator.
MTS-oxygenation assays were carried out under the same buffer, temperature, time and volume conditions, as for the N-oxygenation assays. The reactions were initiated upon addition of 10 μl of a 5 mM solution of MTS. The reaction was quenched with the addition of 700 μl of 80% CH3CN:20% hexane then 20 mg NaCl(s) and vortexed vigorously for 10 sec. The quenched reactions were then centrifuged briefly to separate the phases. The organic layer, containing product and substrate, was removed and used directly for HPLC analysis.
All other instruments used were the same as above for the N-oxygenation reactions. Conditions for elution were 50% CH3CN/H2O (v:v) with a flow rate gradient as follows: 1.5 ml min^−1 from 0 to 4 min., 1.5-2.5 ml min^−1 from 4 to 5 min, 2.5 ml min^−1 from 5 to 15 min.
Trimethylamine is commonly ingested in foodstuffs or it is available in the diet of humans from choline and other sources. Trimethylamine (TMA) is exclusively eliminated in humans by metabolism to trimethylamine N-oxide (TMANO). […] Thus, urinary TMANO formation provides a simple, reliable and direct assay of FMO3 activity in adult humans. Analysis of TMA to TMANO ratios provides a direct means of phenotyping adult humans for FMO3 activity. Phenotyping FMO3 activity in humans would provide a simple means of evaluating the relationship between the presence of FMO3 and various disease conditions. […]

in vitro = conditions: human, pH 8.4
Description: (§1) In all cases examined, product formation was directly determined by HPLC analysis of organic extracts.
(§2) Human liver samples were obtained from the Department of Surgery (UCSF) and with a protocol from the Medical College of Wisconsin (S. Wrighton).
(§3) A typical incubation mixture (final volume 0.25 ml) contained hepatic microsomes (0.4 mg of protein) or bacterial lysate (2.3 mg of protein), NADP^+ (0.5 mM), glucose-6-phosphate (2.0 mM), glucose-6-phosphate dehydrogenase (1 IU), DETAPAC (0.8 mM) and potassium phosphate buffer (50 mM, pH 8.4). Reactions were initiated by the addition of substrate and terminated at designated times by the addition of three volumes of cold dichloromethane, mixed thoroughly and centrifuged to separate the aqueous and organic fractions. N- and S-oxide metabolic products in the resulting organic extracts were separated and quantified by HPLC. […] Thiobenzamide and thiobenzamide S-oxide were quantified with this same, HPLC system employing a mobile phase of methanol/acetonitrile/60% perchloric acid (20:80:0.016, v/v) which gave retention volumes of 2.7 and 7.0 ml, respectively. […] The major metabolites formed in the incubations were also subjected to mass spectral analysis after extraction of isolated HPLC fractions.
(§4) RPLC of the S-oxide diastereomers with a Chiracel OT chiral analytical column (25 cm×0.15 cm inner diameter, Daicel Chemical Co., New York, N.Y.) was accomplished with a Beckman system, Kratos UV detector (240 nm) and a Hewlett Packard Integrator. […] Quantification was accomplished by comparing integrated HPLC peak areas after taking into account the difference in the extinction coefficients at 240 nm. Likewise, the cis and trans S-oxide diasteromers of (+)- and (−)-2-methyl-1,-benzodithiole were separated with a Chiracel OT chiral analytical column.

Human Liver Microsomes = assay: in vitro
Description: as §1, §2, §3, §4

[2] = biological target: T2, adult human liver flavin-containing monooxygenase (form 3) (Homo sapiens, UniProt P31513, E158K); assay: N- and S-oxygenation by cDNA-expressed HLFMO 3 (solubilized protein from E. coli transformed with pTrcHLFMO 3), HPLC
T2 sequence (P31513 1-532 E158K): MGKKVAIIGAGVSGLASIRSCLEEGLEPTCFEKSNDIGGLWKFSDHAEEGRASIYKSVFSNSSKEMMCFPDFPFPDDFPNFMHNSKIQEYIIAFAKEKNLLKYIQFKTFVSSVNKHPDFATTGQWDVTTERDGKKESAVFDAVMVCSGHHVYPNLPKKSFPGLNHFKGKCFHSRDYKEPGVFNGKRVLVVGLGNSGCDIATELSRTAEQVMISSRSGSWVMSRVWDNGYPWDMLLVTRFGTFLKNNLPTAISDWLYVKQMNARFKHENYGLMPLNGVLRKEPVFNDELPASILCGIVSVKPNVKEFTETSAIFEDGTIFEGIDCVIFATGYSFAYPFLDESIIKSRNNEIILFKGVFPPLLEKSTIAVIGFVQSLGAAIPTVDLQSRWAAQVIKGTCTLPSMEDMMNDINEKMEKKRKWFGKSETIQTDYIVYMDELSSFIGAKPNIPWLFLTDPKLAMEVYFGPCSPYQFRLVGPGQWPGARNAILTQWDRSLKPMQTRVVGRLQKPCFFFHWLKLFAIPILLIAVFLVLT
Description: as §1
Competent NM522 Escherichia coli cells were transformed with the pTrc HLFMO 3 plasmid. […] After inoculation with a fresh overnight culture of NM522 containing pTrcHLFMO 3, the culture was grown at 37° C. until Abs600 was approximately 0.5 absorbance units. Finally, IPTG (0.8 mM) was added to the culture to induce expression of protein and the culture was left to grow overnight at 37° C.
The bacterial pellet was resuspended in 5 volumes of 50 mM potassium phosphate buffer (pH 8.4) containing 1% Triton X-100, 0.1% L-, α-phosphatidylcholine (L-α-lecithin) from egg yolk, 500 μM PMSF, and 1 mM EDTA. The mixture was sonicated and then centrifuged to remove cellular debris. As a control, bacterial lysate extracts from IPTG-induced pTrc99A-transformed NM522 cells (i.e., pTrc99A without the HLFMO 3 cDNA insert) were prepared under the same conditions.
as §2, §3, §4

[3] = system: E. coli strains that contained FMO3 cDNA; assay: Agar plate growth in the presence of difloxacin, strains with FMO3 cDNA; assay type: cell-based; conditions: same conditions (0.25 microgram/mL)
From the text: (§5) To validate the observations made in liquid culture, agar plate experiments were done in the presence of difloxacin with different strains streaked out containing different FMO cDNAs.

[4] = system: E. coli containing FMO1 cDNA plasmid; assay: Agar plate growth in the presence of difloxacin, strain with FMO1 plasmid; assay type: cell-based; conditions: 0.25 microgram/mL
From the text: as §5

NM522 E. coli = assay: Bactericidal action / cytotoxicity in liquid culture; conditions: Escherichia coli, read-out: bactericidal action EC50
human FMO3 = human FMO3 (Homo sapiens, UniProt P31513); conditions: in vitro; cited from earlier work
human FMO3, sequence (P31513 whole entry): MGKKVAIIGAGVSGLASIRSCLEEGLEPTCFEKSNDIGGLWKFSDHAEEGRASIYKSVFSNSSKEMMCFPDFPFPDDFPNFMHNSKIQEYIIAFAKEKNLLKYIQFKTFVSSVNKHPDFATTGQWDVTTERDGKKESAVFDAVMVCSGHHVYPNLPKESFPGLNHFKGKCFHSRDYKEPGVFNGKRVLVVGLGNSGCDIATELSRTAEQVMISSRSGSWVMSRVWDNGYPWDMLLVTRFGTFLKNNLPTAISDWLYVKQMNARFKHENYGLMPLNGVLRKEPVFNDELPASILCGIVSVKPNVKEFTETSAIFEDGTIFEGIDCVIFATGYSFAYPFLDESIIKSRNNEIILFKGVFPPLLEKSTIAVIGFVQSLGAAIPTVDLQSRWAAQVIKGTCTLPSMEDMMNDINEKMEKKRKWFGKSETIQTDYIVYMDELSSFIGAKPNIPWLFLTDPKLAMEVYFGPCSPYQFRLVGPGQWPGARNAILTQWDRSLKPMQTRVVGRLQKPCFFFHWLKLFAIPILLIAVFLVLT

SMILES: CN(C)C [TMA, trimethylamine]
dose converted to TMANO that is excreted in the urine [1]: over 95%
Vmax of N-oxygenation to TMANO (lys158-HFMO3-MBP): 3.8 nmol of TMANO formed/min/mg of protein

Km (in vitro): 14.9 µM
Vmax, Human Liver Microsomes (Human Liver Microsomes): 1.3 nmol/min/mg of protein
substrate activity for human liver microsomes and expressed HLFMO 3, in words [2]: excellent substrates
pH of maximum S-oxygenase activity ([2]; in the presence of microsomes and expressed HLFMO 3): ~8.5
SMILES: NC(=S)c1ccccc1 [Thiobenzamide, thiobenzamide]

SMILES: CN1CCN(c2cc3c(cc2F)c(=O)c(C(=O)O)cn3-c2ccc(F)cc2)CC1 [difloxacin]
sensitivity of strains containing FMO3 cDNA to the antibiotic [3]: much more sensitive
effect of FMO1 plasmid on growth in the presence of the antibiotic [4]: conferred resistance
EC50 (NM522 E. coli): ~5 µg/mL (≈ 12.5 µM)

SMILES: CN1CCC[C@H]1c1cccnc1 [(S)-nicotine]
N-1'-oxide product stereoselectivity (human FMO3): exclusively converted to trans (S)-nicotine N-1′-oxide
